From patent publication US20100184767A1, “SUBSTITUTED OXAZOLIDINONES AND USE THEREOF” (priority 2007, published 2010)

molecular target: human factor Xa (FXa) (Homo sapiens, UniProt P00742); assay: Factor Xa inhibition, fluorogenic assay; type: biochemical; conditions: fluorogenic substrate Boc-Ile-Glu-Gly-Arg-AMC, human FXa 1.3 nmol/l, pH 7.4, 22° C.
Description: The enzymatic activity of human factor Xa (FXa) is measured using the conversion of a fluorogenic substrate specific for FXa. FXa cleaves aminomethylcoumarin, whose fluorescence is measured, from the peptidic substrate. The determinations are carried out in microtitre plates.
Substances to be tested, in various concentrations, are dissolved in dimethyl sulphoxide and incubated for 15 min at 22° C. with human FXa (1.3 nmol/l dissolved in 50 mmol/l of Tris buffer [C,C,C-tris(hydroxymethyl)aminomethane], 100 mmol/l NaCl, 0.1% BSA [bovine serum albumin], pH 7.4). The fluorogenic substrate (5 μmol/l of Boc-Ile-Glu-Gly-Arg-AMC from Bachem) is then added. After an incubation time of 30 min, the sample is excited at a wavelength of 360 nm, and the emission at 460 nm is measured. The measured emissions of the test batches with test substance are compared to the control batches without test substance (only dimethyl sulphoxide instead of test substance in dimethyl sulphoxide), and IC50 values are calculated from the concentration/activity relationships.

Sequence of human factor Xa (FXa) (P00742 235-488 limits assumed): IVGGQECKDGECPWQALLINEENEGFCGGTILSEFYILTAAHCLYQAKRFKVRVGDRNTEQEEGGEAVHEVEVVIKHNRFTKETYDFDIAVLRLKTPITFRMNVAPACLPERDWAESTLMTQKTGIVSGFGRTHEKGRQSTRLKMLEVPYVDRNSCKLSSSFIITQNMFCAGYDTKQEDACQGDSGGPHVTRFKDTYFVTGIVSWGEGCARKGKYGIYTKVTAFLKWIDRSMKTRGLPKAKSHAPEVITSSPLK
Sequence of human factor Xa (FXa) (P00742 41-179 partner limits assumed): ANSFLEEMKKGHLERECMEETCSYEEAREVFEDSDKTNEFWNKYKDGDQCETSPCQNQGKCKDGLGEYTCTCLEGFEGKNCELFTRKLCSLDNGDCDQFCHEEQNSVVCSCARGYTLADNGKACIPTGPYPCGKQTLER

SMILES | IC50 [nM]
O=C(NC[C@H]1CN(c2ccc(N3CCOCC3=O)cc2F)C(=O)O1)c1ccc(Cl)s1 [Example 1, 5-Chloro-N-({(5S)-3-[2-fluoro-4-(3-oxomorpholin-4-yl)phenyl]-2-oxo-1,3-oxazolidin-5-yl}methyl)thiophene-2-carboxamide] | 0.9
O=C(NC[C@H]1CN(c2ccc(-n3cccc(CO)c3=O)cc2F)C(=O)O1)c1ccc(Cl)s1 [Example 22, 5-Chloro-N-{[(5S)-3-{2-fluoro-4-[3-(hydroxymethyl)-2-oxopyridin-1(2H)-yl]phenyl}-2-oxo-1,3-oxazolidin-5-yl]methyl}thiophene-2-carboxamide] | 0.9
O=C(NC[C@H]1CN(c2ccc(N3CCCCC3=O)cc2F)C(=O)O1)c1ccc(Cl)s1 [Example 11, 5-Chloro-N-({(5S)-3-[2-fluoro-4-(2-oxopiperidin-1-yl)phenyl]-2-oxo-1,3-oxazolidin-5-yl}methyl)thiophene-2-carboxamide] | 2.2
O=C(NC[C@H]1CN(c2ccc(N3CCOCC3=O)cc2Cl)C(=O)O1)c1ccc(Cl)s1 [Example 12, 5-Chloro-N-({(5S)-3-[2-chloro-4-(3-oxomorpholin-4-yl)phenyl]-2-oxo-1,3-oxazolidin-5-yl}methyl)thiophene-2-carboxamide] | 1.8
